The values below come from patent US7585895B2, “Therapeutic substituted cyclopentanes” (Allergan, Inc., priority 2005, dated 2009).

Assay [1] addresses T1, hDP/Gqs5 (Homo sapiens, UniProt Q13258).
T1 construct: expressed in transfected cells
T1 sequence (Q13258 1-359): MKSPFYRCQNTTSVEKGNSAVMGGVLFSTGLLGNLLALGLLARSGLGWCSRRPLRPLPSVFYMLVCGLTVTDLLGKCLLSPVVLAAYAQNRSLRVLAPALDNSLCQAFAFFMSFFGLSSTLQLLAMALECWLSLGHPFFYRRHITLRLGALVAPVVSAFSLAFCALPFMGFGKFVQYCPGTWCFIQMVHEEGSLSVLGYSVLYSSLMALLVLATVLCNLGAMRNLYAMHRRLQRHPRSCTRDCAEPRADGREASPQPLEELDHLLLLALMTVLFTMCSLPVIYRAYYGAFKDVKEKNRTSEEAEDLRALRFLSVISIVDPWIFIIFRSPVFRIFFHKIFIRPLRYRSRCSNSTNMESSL
Briefly: FLIPR calcium signal, DP. The assay is classed as cell-based. As to conditions: HEK-293(EBNA). In outline:
(§1)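 Stably transfected HEK-293(EBNA) cells loaded with 2 μM Fluo-4 AM in HBSS-HEPES pH 7.4, 37° C; peak fluorescence rise after compound addition (FLIPR, 488 nm excitation) expressed relative to buffer and standard agonist controls (PGE2 for EP subtypes, U-46619 for TP). Tested 10^−5 to 10^−11 M, duplicates, n≧3.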

Assay [2] deals with EP2 (Homo sapiens, UniProt P43116). Nature of the assay: Competition binding, [3H]PGE2, EP2 (Ki). More on the design: expressed in transfected cells; membranes or whole cells. As to conditions: HEK 293 cells stably expressing human EP2, [3H]PGE2. The method in brief:
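Membranes (~60 μg protein) or 2×10^5 HEK 293 cells stably expressing human EP2, in HBSS/20 mM Hepes pH 7.3 with [3H]PGE2 (10 nM), 60 min at 23° C, then filtration. Non-specific binding with 10 μM unlabeled PGE2; single-site fit IC50 converted to Ki using KD 40 nM.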

In assay [3] the target is T2, hIP (Homo sapiens, UniProt P43119).
T2 construct: expressed in transfected cells
T2 sequence (P43119 whole entry): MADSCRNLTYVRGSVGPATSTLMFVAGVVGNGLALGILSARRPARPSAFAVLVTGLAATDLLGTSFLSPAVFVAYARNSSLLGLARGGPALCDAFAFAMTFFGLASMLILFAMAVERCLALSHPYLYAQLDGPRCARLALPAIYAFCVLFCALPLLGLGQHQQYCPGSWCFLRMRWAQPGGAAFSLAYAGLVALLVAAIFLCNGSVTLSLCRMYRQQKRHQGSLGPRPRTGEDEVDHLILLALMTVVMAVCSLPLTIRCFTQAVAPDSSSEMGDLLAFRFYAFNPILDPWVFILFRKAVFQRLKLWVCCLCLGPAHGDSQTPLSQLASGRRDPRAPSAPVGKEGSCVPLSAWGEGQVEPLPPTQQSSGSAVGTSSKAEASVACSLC
Briefly: FLIPR calcium signal, IP. It counts as cell-based. As to conditions: HEK-293(EBNA). In outline:
as §1

Chain of EP2 (P43116 whole entry): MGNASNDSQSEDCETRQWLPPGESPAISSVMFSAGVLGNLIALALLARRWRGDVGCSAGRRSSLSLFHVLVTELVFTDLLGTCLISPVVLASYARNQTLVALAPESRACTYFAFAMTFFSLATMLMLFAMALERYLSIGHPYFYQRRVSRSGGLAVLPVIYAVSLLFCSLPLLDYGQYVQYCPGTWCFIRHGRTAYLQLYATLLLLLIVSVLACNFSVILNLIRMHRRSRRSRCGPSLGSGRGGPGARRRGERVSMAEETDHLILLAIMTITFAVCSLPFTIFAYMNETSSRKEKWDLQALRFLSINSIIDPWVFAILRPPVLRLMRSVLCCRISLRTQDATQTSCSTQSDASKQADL

For the compound `CCCCCC(O)C(C)(C)c1ccc([C@@H]2[C@@H](C/C=C\CCCC(=O)O)[C@H](Cl)C[C@H]2O)cc1` (stereo partly drawn) [Entry 31, (Z)-7-{(1R,2S,3R,5R)-5-Chloro-3-hydroxy-2-[4-(2-hydroxy-1,1-dimethyl-heptyl)-phenyl]-cyclopentyl}-hept-5-enoic acid], the “Ca2+ Signal-EC50 (nM) DP” value in assay [1] is given as “not active”. The Ki in assay [2] worked out at 182 nM. In addition, the “Ca2+ Signal-EC50 (nM) IP” value in assay [3] is on record as “not active”.

For `CCCCCCc1ccc([C@@H]2[C@@H](C/C=C\CCCC(=O)O)[C@H](Cl)C[C@H]2O)cc1` [Entry 33, (Z)-7-[(1R,2S,3R,5R)-5-Chloro-2-(4-hexyl-phenyl)-3-hydroxy-cyclopentyl]-hept-5-enoic acid], the “Ca2+ Signal-EC50 (nM) DP” value in assay [1] is given as “not active”. The compound also displayed a Ki in assay [2] of 83 nM. The “Ca2+ Signal-EC50 (nM) IP” value in assay [3] is on record as “not active”.

`CCCCCC(O)c1ccc([C@@H]2[C@@H](C/C=C\CCCC(=O)O)[C@H](Cl)C[C@@H]2O)cc1` (stereo partly drawn) [Entry 34, (Z)-7-{(1R,2S,3S,5R)-5-Chloro-3-hydroxy-2-[4-(1-hydroxy-hexyl)-phenyl]-cyclopentyl}-hept-5-enoic acid]: the “Ca2+ Signal-EC50 (nM) DP” value in assay [1] is reported as “not active”. For the same compound, the affinity in assay [2], expressed as Ki, was 12 nM. Besides, the EC50 in assay [3] (read-out: Ca2+ Signal-EC50 (nM) IP) was found to be 3280 nM.
